We go through four compounds from patent US7138147B2, “Arsenic sulfide compounds and derivatives thereof for the treatment of malignancies” (priority 1998, dated 2006).

The nature of data set [1]: Solubility of As4S4 in solvents. The conditions noted are these: polyvinylpyrrolidone, pyrrolidone, alcohol, ether, di-sodium hydrophosphate, mercaptopurine, sodium bicarbonate; various concentrations. It is filed as physicochemical. The method, then: In other experiments, a number of solvents, such as polyvinylpyrrolidone, pyrrolidone, alcohol, ether, di-sodium hydrophosphate, mercaptopurine and sodium bicarbonate, were tested to increase solubility of As4S4. […] Accordingly, As4S4 solubilized in the above solvents is useful for intravenous administration.

The subject of data set [2] is acute promyelocytic leukemia (APL). The data set can be described thus: Clinical treatment of APL patients with arsenic disulfide. The format is in vivo, human. The text has this:
(§1) Newly diagnosed, or relapsing patients are given a different protocol of treatment than are those patients who are in current remission. […] Preferably the dose given will range from approximately 0.5 to approximately 0.75 gram of arsenic disulfide. This equates to 2 to 3 capsules, according to the above formulation, by mouth for one dose. After the initial three days, the patient is given the compound three times daily until remission is induced. To prevent complications due to the potential build up of arsenic in the body, treatment should not exceed 100 days. In most cases, favorable response should be induced before forty days of treatment. These later doses may be somewhat reduced in amount compared to the original three day dosages. […] At this point, the patient should be reevaluated through testing, and allowed to rest before beginning another course of treatment according to the present protocol.
(§2) The patient then abstains from treatment for a set period of time. During this time, the patient is tested. Treatment is adjusted according to test results with the period of abstention lasting from two weeks to 100 days, depending upon results. The length of the maintenance procedure varies according to patients' conditions, and may last as long as 3 years (including treating and resting periods). Each dose during this phase of treatment preferably contains arsenic disulfide in the range of approximately 0.50 to 0.75 gram. Once again the preferred method of administration is orally through use of a capsule as described above. Usually, a maintenance treatment is divided into two stages.
All patients who make up a part of the case studies have been diagnosed with APL on the basis of cell morphology of AML-M3, that is acute hypergranular promyelocytic leukemia, immunological cell markers, chromosomal analysis showing (15;17) translocation, and positive PML/RARα mRNA expression. Some patients were referred to the study with a diagnosis based solely on pathologic changes in cell morphology; these patients' diagnoses were tracked and reconfirmed throughout the study. Chronic myeloid leukemia and lymphoma patients have also benefitted from arsenic disulfide treatment, as illustrated by case studies 3 and 4.
Fifty-one patients met the inclusion criteria for the study.
(§3) Exclusion criteria for the study included history of hypersensitivity to arsenic compounds, previous treatment with arsenic-containing medications, patient in critical condition, excessively low or high white blood counts, existing heart, liver or kidney conditions, and severe infection. Three patients were excluded on these grounds, leaving 48 patients in the study. All 48 cases were treated with arsenic disulfide according to the above protocol. ATRA or other cytotoxic agents were not used. All 48 patients are living and Leukemia free as of April, 1998.

Data set [3] in a line: Side effects of arsenic disulfide treatment in patients. The format is in vivo, human.
Text: as §1, §2, §3
Side effects of treatment with arsenic disulfide are minimal when compared to those of other antineoplastic agents. Potential side effects include loss of appetite, mild diarrhea, and transient reversible increase of aspartate aminotransferase (AST). A minority of patients experienced cutaneous itching or puffing of the eyelids, and mild leukopenia occurred slowly in 34% of patients. One patient had thrombocytopenia without bleeding. There were no deaths associated with the use of arsenic sulfide.

For data set [4], the system named is chronic myeloid leukemia (CML). The data set can be described thus: Case study 3: chronic myeloid leukemia patient. The format is in vivo, human. Conditions: case study 3, 0.6 gram twice daily. As to the method: A person was diagnosed as having chronic myeloid leukemia (CML) in February, 1959. […] Initially, they were treated with Myleran. On Jan. 20, 1960, the white blood cell count was […] showing a differential count of 11% promyelocyte and myelocyte. […] Patient was given 0.6 gram of arsenic disulfide twice daily. While being treated, blood and bone marrow pictures were controlled. The patient died, on Sep. 5, 1965 from infection unrelated to the arsenic sulfide treatment.

Data set [5] concerns non-Hodgkin's lymphoma. The data set can be described thus: Case study 4: non-Hodgkin's lymphoma patient. The format is in vivo, human. The conditions noted are these: case study 4, resistant to conventional anticancer treatment; since March, 1998.
Text: as §1
A person diagnosed with non-Hodgkin's lymphoma in September 1996 was treated with a combination chemotherapy regimen and had cranial irradiation for meningeal lymphoma. They also had high dose chemo-radiotherapy for autologous stem cell transplant. The patient has several relapses including intracranial relapse and a large amount of lymphoma cells in peripheral blood with typical clinical and laboratory features of lymphoma/leukemia. […]

For data set [6] the following is noted: EPA/600/8-91/061; cited from earlier work.
For data set [7] the following is noted: in vivo; cited from earlier work.
Data set [8] has as its system refractory APL. The conditions noted are these: intravenous 10 mg/day for 4–9 weeks; cited from earlier work.
Data set [9] has as its system NB4 cells. The conditions noted are these: in vitro, APL cell line; cited from earlier work.

Turning to `S1[As]2S[As]3S[As]2S[As]13` [arsenic disulfide], in data set [1], the solubility in solvents entry was “soluble”. The “time to complete remission level” value in data set [2] (case study 1) was found to be 36 days. Besides, in data set [2] (case study 1, Aug. 28, 1997), the “blast cells and leukemic promyelocytes” value is reported as “less than 5%”. Moreover, the “hemoglobin and platelet levels” value in [2] (case study 1, FIG. 1) is on record as “marked increase”. Further, the “blasts and white blood cells” value in data set [2] (case study 1, FIG. 2) is reported as “dramatic decrease”; in data set [2] (case study 2, FIG. 4), “dramatic change”. In addition, the clinical outcome in [2] (case study 1, newly diagnosed APL) is “complete remission”; in [2] (case study 2, relapsed APL, treated 21 days) it was “complete remission”; in data set [5] it was “in remission”. Further, the “patients living and leukemia free” value in [2] (of 48 APL patients treated, as of April, 1998, no ATRA or cytotoxic agents) is listed as 48 patients. In data set [2] (of ten newly diagnosed or relapsed patients), the “patients attaining complete remission after one course of treatment” value is listed as “Eight”. For the same compound, in [2] (patients in complete remission before treatment with positive markers), the “markers indicating residual leukemia cells after maintenance protocol” value is reported as “persistently negative”. For the same compound, in data set [2] (ten newly diagnosed or relapsed patients), the “patients alive and remaining in complete remission, leukemia free” value is on record as “All ten”. Besides, the “deaths associated with use” value in [3] (human, in vivo) was “no deaths”. Besides, the thrombocytopenia without bleeding result in data set [3] (human, in vivo) was “One patient”. Also, the “mild leukopenia, incidence” value in data set [3] (occurred slowly) is listed as 34 % of patients. The “side effects compared to other antineoplastic agents” value in [3] (patients) is reported as “minimal”. Besides, in data set [4], the “blood and bone marrow pictures” value is reported as “controlled”. The carcinogenicity classification entry in [6] is on record as “human carcinogens”.
In the case of `S=[As]S[As]=S` (stereo not drawn) [arsenic trisulfide], the carcinogenicity classification entry in data set [6] is “human carcinogens”. In addition, the tumorigenicity entry in data set [7] is reported as “inconclusive”.
In the case of arsenic trioxide, the “patients with complete morphologic remission” value in data set [8] is recorded as 14 of 15. Besides, the “apoptosis (programmed cell death)” value in data set [9] was “induced apoptosis”.
For calcium arsenate [reference compound], the tumorigenicity entry in data set [7] was “tumorigenic”.
